Source: article PMC4607367, “Gedunin and Azadiradione: Human Pancreatic Alpha-Amylase Inhibiting Limonoids from Neem (Azadirachta indica) as Anti-Diabetic Agents” (PLoS ONE, 2015)

Legend:
[1] = target: T1, Porcine pancreatic α-amylase (PPA) (Sus scrofa, UniProt P00690); experiment: Porcine pancreatic α-amylase inhibition assay, chromogenic DNSA method (primary screening); type: biochemical; conditions: starch 1% w/v, pH 6.9, 37°C
T1 construct: purchased SRL, Mumbai, India
T1 sequence (P00690 16-511): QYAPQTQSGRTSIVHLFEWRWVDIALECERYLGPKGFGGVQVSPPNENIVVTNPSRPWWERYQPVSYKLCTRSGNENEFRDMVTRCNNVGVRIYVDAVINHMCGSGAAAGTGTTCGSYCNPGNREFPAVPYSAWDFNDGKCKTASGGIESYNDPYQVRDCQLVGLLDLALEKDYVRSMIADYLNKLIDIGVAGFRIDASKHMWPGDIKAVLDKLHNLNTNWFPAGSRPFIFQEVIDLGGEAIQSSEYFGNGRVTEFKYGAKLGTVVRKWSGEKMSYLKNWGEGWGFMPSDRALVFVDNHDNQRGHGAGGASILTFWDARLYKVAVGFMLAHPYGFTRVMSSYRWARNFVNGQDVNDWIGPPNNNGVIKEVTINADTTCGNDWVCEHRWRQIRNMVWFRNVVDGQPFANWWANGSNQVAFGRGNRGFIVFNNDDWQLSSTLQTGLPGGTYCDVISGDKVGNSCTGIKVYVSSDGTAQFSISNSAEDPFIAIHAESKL
Procedure: The inhibition assay was performed using the chromogenic DNSA method. PPA was used for preliminary screening of α-amylase inhibitors. […] Moreover a high degree gene sequence similarity (~ 90%) exists between human salivary α-amylase (HSA) and PPA as reported by (Buisson et al 1987). Brayer et al (1995) have reported 97% primary sequence similarity between human salivary and human pancreatic α-amylases and a 70% structural similarity between PPA and HPA [11]. Thus, a high degree of similarity between PPA and HPA allows us to use it as the enzyme for screening inhibitors.
In brief, the total assay mixture consisting of 0.02 M sodium phosphate buffer, pH6.9, (containing 6 mM NaCl), 0.2–0.25 U of PPA and inhibitors (13.8–214.3 μM) in DMSO was incubated at 37°C for 10 min. After pre-incubation, the substrate starch (1%, w/v) solution was added to the reaction mixture and further incubated for 15 min. The control PPA (0.21 U) without any inhibitor represented 100% enzyme activity. One unit of enzyme activity is defined as the amount of enzyme required to release one micromole of maltose from starch/maltopentaose per min under the assay conditions. The other quantifiers calculated were: % Relative enzyme activity = (enzyme activity of test/enzyme activity of control)*100. % inhibition = (100 − % relative enzyme activity).
The IC50 values were determined from plots of percent inhibition versus inhibitor concentration and calculated by logarithmic regression analysis. To eliminate the absorbance produced by the compound, appropriate controls were included. The known PPA/HPA inhibitor acarbose was used as a positive control at a concentration range of 10–50 μM.

[2] = target: T2, secreted pancreatic α-amylase of AR42J cells (Rattus norvegicus, UniProt P00689); experiment: Bioactivity: inhibition of secreted pancreatic α-amylase in dexamethasone-induced AR42J cells, incl. starch load test (DNSA); type: cell-based; conditions: AR42J
T2 construct: host or cells: AR42J rat pancreatic acinar cells, induced with 10 nM dexamethasone
T2 sequence (P00689 16-508): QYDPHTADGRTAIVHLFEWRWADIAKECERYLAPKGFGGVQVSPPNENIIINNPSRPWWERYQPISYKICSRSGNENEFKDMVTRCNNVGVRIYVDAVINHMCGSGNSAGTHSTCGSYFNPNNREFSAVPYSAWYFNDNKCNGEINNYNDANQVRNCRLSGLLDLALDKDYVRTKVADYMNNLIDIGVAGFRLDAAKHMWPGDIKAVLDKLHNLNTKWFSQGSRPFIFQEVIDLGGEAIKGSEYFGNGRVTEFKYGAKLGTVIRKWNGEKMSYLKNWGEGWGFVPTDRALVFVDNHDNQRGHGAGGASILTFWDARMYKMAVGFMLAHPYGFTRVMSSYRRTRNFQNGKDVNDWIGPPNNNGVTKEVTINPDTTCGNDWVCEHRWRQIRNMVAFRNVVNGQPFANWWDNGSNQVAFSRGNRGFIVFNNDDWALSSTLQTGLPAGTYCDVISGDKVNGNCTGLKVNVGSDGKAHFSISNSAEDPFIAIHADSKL
Source text: Appropriate medium and DMSO controls were simultaneously set up.

[3] = target: T3, Human pancreatic α-amylase (HPA) (Homo sapiens, UniProt P04746); experiment: Human pancreatic α-amylase inhibition and stoichiometry (DNSA); type: biochemical; conditions: percentage inhibition versus molar ratio of HPA and inhibitor; HPA 14.85 μM
T3 construct: purchased Sigma Aldrich, USA
T3 sequence (P04746 16-511): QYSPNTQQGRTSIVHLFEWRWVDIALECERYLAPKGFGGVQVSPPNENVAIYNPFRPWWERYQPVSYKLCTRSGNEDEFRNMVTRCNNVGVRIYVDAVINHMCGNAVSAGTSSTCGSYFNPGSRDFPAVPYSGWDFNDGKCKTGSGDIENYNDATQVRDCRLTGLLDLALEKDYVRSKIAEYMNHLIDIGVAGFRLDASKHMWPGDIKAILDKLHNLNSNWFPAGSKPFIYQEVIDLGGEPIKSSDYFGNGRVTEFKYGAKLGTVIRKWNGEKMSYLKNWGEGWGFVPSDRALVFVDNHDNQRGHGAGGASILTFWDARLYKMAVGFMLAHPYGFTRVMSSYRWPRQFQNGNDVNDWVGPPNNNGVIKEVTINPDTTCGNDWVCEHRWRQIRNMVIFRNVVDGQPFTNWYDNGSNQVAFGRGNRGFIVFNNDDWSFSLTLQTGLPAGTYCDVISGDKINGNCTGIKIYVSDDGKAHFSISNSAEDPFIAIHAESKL
Source text: The control HPA (0.25 U) without inhibitors represented 100% enzyme activity.

[4] = target: T3, Human pancreatic α-amylase (HPA); experiment: HPA inhibition kinetics (Michaelis-Menten, Lineweaver-Burk, secondary plots); type: biochemical
Procedure: The mode of inhibition of HPA by the lead inhibitors azadiradione and gedunin were determined using Michaelis-Menton and Lineweaver-Burk equations. Starch (1–5mg ml^-1) and maltopentaose (0.05–0.4mM) were incubated with inhibitors-HPA for 10 and 2.5 min, respectively and the residual enzyme activity determined by DNSA method for starch and Nelson-Somogyi’s method for maltopentaose.The inhibitor constants(K i) were determined on the basis of mode of inhibition.

[5] = target: T3, Human pancreatic α-amylase (HPA); experiment: Ligand binding to HPA by fluorescence quenching titration, thermodynamic parameters
Procedure: Ligand binding studies using fluorescence measurements of HPA were carried as described in our earlier report. […] Non-linear and linear regression analyses were used to analyze the data.
The thermodynamic parameters, association constants (K a), dissociation constant (K d) and Gibbs free energy (ΔG°) of binding for azadiradione and gedunin were determined at various temperatures 25°C to 60°C by fluorescence quenching studies.

[6] = tested on: AR42J rat pancreatic acinar cells; conditions: 24 h, 3.5 μM
Procedure: (§1) Cells were seeded at 2×10^4 cells well^-1 onto 96 wells culture dish. […] Appropriate medium and DMSO controls were simultaneously set up. […] At the end of 24 h incubation period the culture media was removed from the samples and fresh culture media (100 μl) containing 20 μl of MTT tetrazolium bromide (5 mg ml^-1) added and incubated for 3 h at 37°C. Metabolically active cells reduce MTT to insoluble purple formazan dye crystals, which were dissolved by addition of 300 μl DMSO solution at the end of the incubation period and quantitated at 550 nm [34].

[7] = Cytotoxicity in AR42J cell line (MTT); conditions: rat, AR42J pancreatic acinar cells
Procedure: as §1

[8] = tested on: AR42J rat pancreatic acinar cells; experiment: Cytotoxicity in AR42J cell line (MTT); conditions: AR42J; azadiradione 3.5 μM, gedunin 3.3 μM (Fig 3)
Procedure: as §1

[9] = linear van't Hoff plot, 298–333 K

CC(=O)O[C@@H]1C[C@H]2C(C)(C)C(=O)C=C[C@]2(C)[C@H]2CC[C@]3(C)C(=CC(=O)[C@H]3c3ccoc3)[C@@]21C [azadiradione]
IC50 [1]: 138 µM
Secreted amylase inhibition in starch load test ([2]; 0.5% (w/v) starch, up to two hours): 22.9%
Amylase inhibition at the cytotoxic IC50 concentration ([2]; 24 h, at 11.1, 13.4 and 4.1 μM respectively): 70.1%
inhibition at 3.5 µM ([2]; AR-42J, 3.5 μM): 41.8%
Stoichiometry of HPA inactivation [3]: 0.66
Ki ([4]; maltopentaose as substrate, secondary plots): 42.2 µM
Apparent K i ′ ([4]; starch as substrate, secondary plots): 75.8 µM
Mode of HPA inhibition ([4]; substrates starch and maltopentaose, Lineweaver-Burk): mixed
-ΔG° ([5]; 298 K): 21.25 k J mol^-1
K a ([5]; 298 K): 4300 M⁻¹
Kd ([5]; 298 K): 200 ± 3 µM
-ΔG° ([5]; 303 K): 20.88 k J mol^-1
K a ([5]; 303 K): 3900 M⁻¹
Kd ([5]; 303 K): 200 ± 1 µM
-ΔG° ([5]; 308 K): 20.27 k J mol^-1
K a ([5]; 308 K): 2700 M⁻¹
Kd ([5]; 308 K): 300 ± 5 µM
-ΔG° ([5]; 313 K): 20.29 k J mol^-1
K a ([5]; 313 K): 2400 M⁻¹
Kd ([5]; 313 K): 400 ± 7 µM
-ΔG° ([5]; 323K): 19.87 k J mol^-1
K a ([5]; 323K): 1600 M⁻¹
Kd ([5]; 323K): 600 ± 2 µM
-ΔG° ([5]; 333K): 18.54 k J mol^-1
K a ([5]; 333K): 810 M⁻¹
Kd ([5]; 333K): 1200 ± 30 µM
Maximal quenching of intrinsic HPA fluorescence ([5]; 350 nm, azadiradione 3.9–118 μM, gedunin 2.0–51.86 μM): 33%
Maximum ΔG° of binding ([5]; calculated from binding constants, maximal affinity at 298 K): -21.25 kJ/mol
Enthalpy (ΔHvH) [5, 9]: -41.86 kJ/mol
Entropy (-ΔS) [5, 9]: 70.09 J mol^-1K^-1
Cell death [6]: 8.6%
IC50 at 24 h [7]: 11.1 µM
Cell morphology versus controls [8]: no morphological change
